Results: patent publication US20230000996A1, “RAPAFUCIN DERIVATIVE COMPOUNDS AND METHODS OF USE THEREOF” (The Johns Hopkins University, priority 2019, published 2023)
Numbered stars: 1 amine (or outer) side, 2 acyl side, 3 side chain; on linkers, the order of the positions; unused ones are H or OH. Square brackets hold non-standard residues; d marks the D form. Side chains are listed from the residue outwards. Peptide text beside a SMILES is read from it. * marks the point of attachment. X1 = COc1ccc(CC[C@@H](N[*:1])c2cccc(OCC(=O)[*:2])c2)cc1OC; X2 = CN(CCC=CC(=O)OCC(C)(C)C(=O)C(=O)[*:2])[*:1]; NMeY = CN[C@@H](Cc1ccc(O)cc1)C(=O)O; Pip = O=C(O)[C@@H]1CCCCN1; Morpholide = C1CN(*)CCO1; CO = O=C([*:1])[*:2]; Sar = CNCC(=O)O

Key:
A549 = experiment: Cell proliferation assay (Prolif.), IC50 scored relative to DMSO control; type: cell-based; settings: A549 cells; for Prolif, A549: IC50 class relative to DMSO control; for Rel. Prolif., A549: proliferation response relative to DMSO control, scored low/medium/high
Description: Cell Proliferation Assay (Prolif.) Guo et al. (2018) Nat. Chem. 11:254-63. Specific cell lines are indicated in each assay and cultured in complete growth media. Activity is scored according to the IC50 values relative to DMSO control. “Low” indicates an IC50 greater than 600 nM, “Medium” indicates an IC50 between 300 nM and 600 nM “High” indicates an IC50 less than 300 nM. “Rel.Uptake” refers to uptake activity characterization relative to a single concentration assay. “Low” indicates a response greater than 0.6 times the activity relative to DMSO, “Medium” indicates a response between 0.6 and 0.3 times the activity relative to DMSO, “High” indicates a response less than 0.3 times the activity relative to DMSO.

NCI-H929 = experiment: Cell proliferation, single concentration assay (Rel. Prolif.), response relative to DMSO; type: cell-based; settings: NCI-H929 cells, activity relative to DMSO
H929 = experiment: Cell proliferation assay (Prolif.), H929; type: cell-based; settings: H929 cells; scored relative to DMSO control
293T = experiment: Nucleoside uptake assay (3H-Thymidine), IC50 scored relative to DMSO control; type: cell-based; settings: 293T cells
Description: (§1) Nucleoside Uptake Assay (uptake). Nuceloside uptake assays were performed with using 3H-Thymidine as described in Guo et al. (2018) Nat. Chem. 11:254-63. Specific cell lines are indicated in each assay and cultured in complete growth media. Activity is scored according to the IC50 values relative to DMSO control. “Low” indicates an IC50 greater than 600 nM, “Medium” indicates an IC50 between 300 nM and 600 nM “High” indicates an IC50 less than 300 nM. “Rel.Uptake” refers to uptake activity characterization relative to a single concentration assay. “Low” indicates a response greater than 0.6 times the activity relative to DMSO, “Medium” indicates a response between 0.6 and 0.3 times the activity relative to DMSO, “High” indicates a response less than 0.3 times the activity relative to DMSO.

[1] = Nucleoside uptake, single concentration assay (Rel.Uptake); cell line indicated in each table; type: cell-based; settings: nucleoside uptake, single concentration assay, 293T cells, response relative to DMSO
Description: as §1

[2] = test system: Rat Renal Ischemia-Reperfusion model; experiment: Rat Renal Ischemia-Reperfusion model; type: in vivo, Sprague Dawley Rats; settings: treated 30 min prior to right nephrectomy and left renal clamping; 24 hours of reperfusion; 1593 at 12 or 4 mg/kg, 1594 at 4 mg/kg
Description: Briefly, Sprague Dawley Rats were treated test compound 30 min prior to a right nephrectomy and with underwent clamping of the left renal clamping for 15 mins. After 24 hours of reperfusion, blood was collected to measure biomarkers for kidney damage and the kidney was removed for histology. […] SHAM indicates an animal group with right nephrectomy without ischemic injury. VE indicates vehicle. DPA indicates dipyridamole administered in a dosage of 10 mg/kg. Compound 1593 was administered at a high dosage (12 mg/kg) or a low dosage (4 mg/kg). Compound 1594 was administered at 4 mg/kg.

For `CCCC[C@H]1C(=O)N[C@@H](Cc2ccc3ccccc3c2)C(=O)N(C)[C@@H](COC(C)(C)C)C(=O)NCC(=O)N(C)CCC=CC(=O)OCC(C)(C)C(=O)C(=O)N2CCCC[C@H]2C(=O)O[C@H](CCc2ccc(OC)c(OC)c2O)c2cccc(c2)OCC(=O)N1C` [Compound 565], the “Prolif, A549” value (A549) was “me- dium” and the “Rel. Prolif., A549” value (A549) was “medium”.

With `CCCC[C@H]1C(=O)N[C@@H](Cc2ccc3ccccc3c2)C(=O)N(C)[C@@H](COC(C)(C)C)C(=O)NCC(=O)N(C)CCC=CC(=O)OCC(C)(C)C(=O)C(=O)N2CCCC[C@H]2C(=O)O[C@H](CCc2cc(O)c(OC)c(OC)c2)c2cccc(c2)OCC(=O)N1C` [Compound 566] the “Prolif, A549” value (A549) was “me- dium” and the “Rel. Prolif., A549” value (A549) was “medium”.

In the case of `CCCC[C@H]1C(=O)N[C@@H](Cc2ccc3ccccc3c2)C(=O)N(C)[C@@H](COC(C)(C)C)C(=O)NCC(=O)N(C)CCC=CC(=O)OCC(C)(C)C(=O)C(=O)N2CCCC[C@H]2C(=O)O[C@H](CCc2cc(OC)c(OC)cc2O)c2cccc(c2)OCC(=O)N1C` [Compound 567], the “Prolif, A549” value (A549) is reported as “me- dium” and the “Rel. Prolif., A549” value (A549) is reported as “medium”.

With `CCCC[C@H]1C(=O)N[C@@H](Cc2ccc3ccccc3c2)C(=O)N(C)[C@@H](COC(C)(C)C)C(=O)NCC(=O)N(C)CCC=CC(=O)OCC(C)(C)C(=O)C(=O)N2CCCC[C@H]2C(=O)O[C@H](CCc2cc(F)c(OC)c(OC)c2)c2cccc(c2)OCC(=O)N1C` [Compound 568] the “Prolif, A549” value (A549) was “me- dium” and the “Rel. Prolif., A549” value (A549) was “medium”.

For `CCCC[C@H]1C(=O)N[C@@H](Cc2ccc3ccccc3c2)C(=O)N(C)[C@@H](COC(C)(C)C)C(=O)NCC(=O)N(C)CCC=CC(=O)OCC(C)(C)C(=O)C(=O)N2CCCC[C@H]2C(=O)O[C@H](CCc2cc(OC)c(OC)cc2F)c2cccc(c2)OCC(=O)N1C` [Compound 569], the “Prolif, A549” value (A549) was “me- dium” and the “Rel. Prolif., A549” value (A549) was “medium”.

In the case of `CCCC[C@H]1C(=O)N[C@@H](Cc2ccc3ccccc3c2)C(=O)N(C)[C@@H](COC(C)(C)C)C(=O)NCC(=O)N(C)CCC=CC(=O)OCC(C)(C)C(=O)C(=O)N2CCCC[C@H]2C(=O)O[C@H](CCc2ccc(OC)c(OC)c2F)c2cccc(c2)OCC(=O)N1C` [Compound 570], the “Prolif, A549” value (A549) is reported as “me- dium” and the “Rel. Prolif., A549” value (A549) is reported as “medium”.

For `CCCC[C@H]1C(=O)N[C@@H](Cc2ccc3ccccc3c2)C(=O)N(C)[C@@H](COC(C)(C)C)C(=O)NCC(=O)N(C)CCC=CC(=O)OCC(C)(C)C(=O)C(=O)N2CCN(C(=O)OCC3c4ccccc4-c4ccccc43)C[C@H]2C(=O)O[C@H](CCc2ccc(OC)c(OC)c2)c2cccc(c2)OCC(=O)N1C` [Compound 571], the “Rel. Prolif., A549” value (A549) was “low”.

For `CCCC[C@H]1C(=O)N[C@@H](Cc2ccc3ccccc3c2)C(=O)N(C)[C@@H](COC(C)(C)C)C(=O)NCC(=O)N(C)CCC=CC(=O)OCC(C)(C)C(=O)C(=O)N2CCN(C)C[C@H]2C(=O)O[C@H](CCc2ccc(OC)c(OC)c2)c2cccc(c2)OCC(=O)N1C` [Compound 572], the “Prolif, A549” value (A549) was “me- dium” and the “Rel. Prolif., A549” value (A549) was “medium”.

For `CCCC[C@H]1C(=O)N[C@@H](Cc2ccc3ccccc3c2)C(=O)N(C)[C@@H](COC(C)(C)C)C(=O)NCC(=O)N(C)CCC=CC(=O)OCC(C)(C)C(=O)C(=O)N2CCCC[C@H]2C(=O)O[C@H](CCc2ccc(OC)c(OC)c2)c2cc(ccc2F)OCC(=O)N1C` [Compound 573], the “Rel. Prolif., A549” value (A549) was “low”.

For `CCCC[C@H]1C(=O)N[C@@H](Cc2ccc3ccccc3c2)C(=O)N(C)[C@@H](COC(C)(C)C)C(=O)NCC(=O)N(C)CCC=CC(=O)OCC(C)(C)C(=O)C(=O)N2CCCC[C@H]2C(=O)O[C@H](CCc2ccc(OC)c(OC)c2)c2cc(F)cc(c2)OCC(=O)N1C` [Compound 574], the “Rel. Prolif., A549” value (A549) was “low”.

With `CCCC[C@H]1C(=O)N[C@@H](Cc2ccc3ccccc3c2)C(=O)N(C)[C@@H](COC(C)(C)C)C(=O)NCC(=O)N(C)CCC=CC(=O)OCC(C)(C)C(=O)C(=O)N2CCCC[C@H]2C(=O)O[C@H](CCc2ccc(OC)c(OC)c2)c2ccc(F)c(c2)OCC(=O)N1C` [Compound 576] the “Prolif, A549” value (A549) was “me- dium” and the “Rel. Prolif., A549” value (A549) was “medium”.

With `COc1ccc(CC[C@H]2OC(=O)[C@@H]3CCCCN3C(=O)C(=O)C(C)(C)COC(=O)C=CCCN(C)C(=O)[C@@H](Cc3ccccc3)NC(=O)CN(C)C(=O)[C@@H](Cc3ccccc3)NC(=O)[C@H](Cc3ccc(OC(=O)N4CCOCC4)cc3)N(C)C(=O)COc3cccc2c3F)cc1OC` [Compound 867] the “Rel. Prolif., NCI-H929” value (NCI-H929) was “low”.

In the case of `COc1ccc(CC[C@H]2OC(=O)[C@@H]3CCCCN3C(=O)C(=O)C(C)(C)COC(=O)C=CCCN(C)C(=O)[C@@H](Cc3ccccc3)NC(=O)CN(C)C(=O)[C@@H](Cc3ccccc3)NC(=O)[C@H](Cc3ccc(OC(=O)N4CCOCC4)cc3)N(C)C(=O)COc3cc(F)cc2c3)cc1OC` [Compound 868], the “Rel. Prolif., NCI-H929” value (NCI-H929) is reported as “low”.

In the case of `COc1ccc(CC[C@H]2OC(=O)[C@@H]3CCCCN3C(=O)C(=O)C(C)(C)COC(=O)C=CCCN(C)C(=O)[C@@H](Cc3ccccc3)NC(=O)CN(C)C(=O)[C@@H](Cc3ccccc3)NC(=O)[C@H](Cc3ccc(OC(=O)N4CCOCC4)cc3)N(C)C(=O)CCC(=O)Nc3cccc2c3)cc1OC` [Compound 869], the “Rel. Prolif., NCI-H929” value (NCI-H929) is reported as “low”.

In the case of `COc1ccc(CC[C@H]2NC(=O)[C@@H]3CCCCN3C(=O)C(=O)C(C)(C)COC(=O)C=CCCN(C)C(=O)[C@@H](Cc3ccccc3)NC(=O)CN(C)C(=O)[C@@H](Cc3ccccc3)NC(=O)[C@H](Cc3ccc(OC(=O)N4CCOCC4)cc3)N(C)C(=O)COc3cccc2c3)cc1OC` [Compound 877] (cyclo([NMeY]([CO-Morpholide])[dF][Sar][dF][X2][Pip][X1])), the “Prolif. H929” value (H929) is reported as “low”.

For `COc1ccc(CC[C@H]2NC(=O)[C@@H]3CCCCN3C(=O)C(=O)C(C)(C)COC(=O)C=CCCN(C)C(=O)[C@H](CC(C)C)N(C)C(=O)[C@H]3CCCN3C(=O)[C@H](Cc3ccccc3)N(C)C(=O)C(c3ccccc3)NC(=O)CCC(=O)Nc3cccc2c3)cc1OC` (stereo partly shown) [Compound 1557], the “Uptake, 293T” value (293T; 3H-Thymidine uptake, IC50 class relative to DMSO control) was “high” and the “Rel. Uptake, 293T” value [1] was “high”.

In the case of `COc1ccc(CC[C@H]2OC(=O)[C@@H]3CCCCN3C(=O)C(=O)C(C)(C)COC(=O)C=CCCN(C)C(=O)[C@H](CC(C)C)N(C)C(=O)[C@H]3CCCN3C(=O)[C@H](Cc3ccc(C(=O)Nc4ccccc4)cc3)NC(=O)[C@H](c3ccccc3)NC(=O)CCC(=O)Nc3cccc2c3)cc1OC` [Compound 1559], the “Uptake, 293T” value (293T; nucleoside uptake) is reported as “medium” and the “Rel. Uptake, 293T” value [1] is reported as “medium”.

With `COc1ccc(CC[C@H]2OC(=O)[C@@H]3CCCCN3C(=O)C(=O)C(C)(C)COC(=O)/C=C/CCN(C)C(=O)[C@H](CC(C)C)N(C)C(=O)[C@H]3CCCN3C(=O)[C@H](Cc3ccc(OCC(=O)O)cc3)NC(=O)[C@H](c3ccccc3)NC(=O)CCC(=O)Nc3cccc2c3)cc1OC` [Compound 1593] the “efficacy in Rat Renal Ischemia-Reperfusion model” value [2] was “efficacious” and the “Rel. Uptake, 293T” value [1] was “High (“High” indicates a response less than 0.3 times the activity relative to DMSO)”.

With `COc1ccc(CC[C@H]2OC(=O)[C@@H]3CCCCN3C(=O)C(=O)C(C)(C)COC(=O)/C=C/CCN(C)C(=O)[C@H](CC(C)C)N(C)C(=O)[C@H]3CCCN3C(=O)[C@H](Cc3ccccc3)NC(=O)[C@H](c3ccccc3)NC(=O)CCC(=O)Nc3cccc2c3)cc1OC` [Compound 1594] the “efficacy in Rat Renal Ischemia-Reperfusion model” value [2] was “efficacious” and the “Rel. Uptake, 293T” value [1] was “Low (“Low” indicates a response greater than 0.6 times the activity relative to DMSO)”.
